Columns and labels:
[1] = tested on: intestinal tract; settings: dogs; cited from earlier work
[2] = pH-titration at constant ionic strength; assay type: physicochemical; settings: pH-titration in both directions
Procedure: For each compound, pH-titrations in both directions were carried out at constant ionic strength. All compounds were completely […] between pH 7.2 and 7.8 for the DT-series and 7.7 and 8.0 for the TT-series, pointing to the availability of all potential donor electrons derived from carboxyl oxygens--for complex or chelate formation similar to EDTA (pH 8.8) and DTPA (pH 6.7), the two model compounds known for their ability to chelate actinides and some other metals.

[3] = known chelators; cited from earlier work
[4] = Distribution of 210Pb between water and chloroform after adding chelator; assay type: physicochemical
Procedure: In this example the ability of DMS(C8)2, from Example 17, and C12 DMS Et2, from Example 16 to move ^210 Pb between lipid and aqueous phases of chloroform and water mixture was measured. This would be an indicator of the ability of the chelator and the chelate-metal complex to penetrate lipophilic barriers.
^210 Pb was dissolved in water. C12 DMS Et2 and DMS(C8)2 were added and mixed for 10 minutes with chloroform. The solutions were mixed every several hours. The phases separated and the percentage of ^210 Pb found in the chloroform phase as a function of time was determined.

[5] = tested on: intestinal mucosa (duodenum and proximal jejunum); assay: Intestinal tied-loop passage of 241Am complexes in situ; assay type: in vivo, rats; settings: 241Am complex, 3 hours
Procedure: (§1) To test the ability of complexed chelons to move across membrane and cellular barriers, an assay has been developed that measures the intestinal passage of the chelons in closed duodenal segments in situ over a 3 hour period. […] Although there were differences in the rate at which some of these compounds moved through this tissue barrier, all were effective in Am removal in vivo as set forth in the following Table 1.
The ability of Am-citrate and ^241 Am-C12 TT to cross the intestinal mucosa in situ was measured using an intestinal tied-loop technique. Rats were anesthetized and a 18-20 cm segment of the duodenum and proximal jejunum was isolated and rinsed with cold saline. The most proximal portion of this segment was 1 cm distal to the pyloric junction. With the stability of the ^241 Am-complex established, known quantities of the corresponding complexes were introduced in vivo directly into the isolated and ligated segment. The animals remained anesthetized to allow for passage of the lipophilic compounds through the intestinal barrier into the body. After 3 hours, the rats were euthanized, the ligated section of the gut was excised and its lumen flushed with saline. Lumen wash, cleaned gut section, combined viscera, liver and the remaining carcass were counted separately. The 241Am found in the various parts was considered as representative of the distribution of the chelon.

[6] = Effect of 1 week oral feeding of TT-based chelons on total body and liver content of 241Am (Table 1); assay type: in vivo, rats; set-up: % Reduction in liver 241Am (Compared with controls): concentration or dose not given beside the values; settings: for % Reduction in liver 241Am (Compared with controls): 1 week oral feeding, determined at necropsy; for % Reduction in total body 241Am (Before vs after chelon feeding): po, 168 h
Procedure: as §1
Effect of 1 week feeding of TT-based chelons on total
body and liver content of ^241 Am. Am was allowed to
incorporate for 1 week prior to oral chelon feeding.
Total body counts were taken before and after chelon feeding.
Liver values were determined at necropsy.

[7] = Weight gain and histology of rats during oral chelon feeding; assay type: in vivo, Sprague-Dawley rats; settings: 10 days oral feeding; controls 61.1+8.8 g
Procedure: In vivo studies of the compounds of the present invention were performed. The effect of oral treatment on rats given an injection of 241Am was studied by a) comparing the reduction of an internal burden of 241Am from rats fed C12 TT or C22 TT with the natural biological retention of ^241 Am under condition of no chelation treatment; b) examination of histologic sections of tissues obtained from treated rats and c) by comparing the relative weight gain of treated rats and controls during the chelon feeding period. The effect of feeding C12 TT or C22 TT on the retention of ^241 Am was tested in 3 groups of 9 rats each. Sprague-Dawley rats (Simonson Labs., Gilroy, Cailf.), aged 60 days, were used in these studies. […]
The first group served as untreated controls, the second and third groups received 50 micro-mole of C12 TT or C22 TT/rat or about 200 micro-mole/kg of body weight, respectively, in their daily ration of 25 g of rodent chow. On days 1 and 7 after injection and on days 3, 6 and 10 of chelation treatment, the total body retention of ^241 Am was measured using a whole body counter. The animals were necropsied after 10 days of oral chelation therapy and the femora, liver, 1 kidney, viscera and carcass with integument were counted for ^241 Am content. […] Whole body retentions as a function of time were evaluated. Terminal organ retentions were measured after necropsy only. […]

[8] = Reduction of 241Am whole body and organ burden by oral chelon administration (Table 2, Example 12); assay type: in vivo, Sprague-Dawley rats; settings: 10 days oral treatment, 50 micro-mole/rat/day, vs controls; for % Reduction of 241Am, both femora / % Reduction of 241Am, carcass / % Reduction of 241Am, liver / % Reduction of 241Am, whole body: p <0.001 (C12TT, C22TT); for % Reduction of 241Am, one kidney: p >0.1 (C12TT, C22TT)
Procedure: ^a) Reduction = 100 - (% of initial activity in treated rats at
death/% of initial activity in controls at death); 9 Rats/Group; 10 Days
In vivo studies of the compounds of the present invention were performed. The effect of oral treatment on rats given an injection of 241Am was studied by a) comparing the reduction of an internal burden of 241Am from rats fed C12 TT or C22 TT with the natural biological retention of ^241 Am under condition of no chelation treatment; b) examination of histologic sections of tissues obtained from treated rats and c) by comparing the relative weight gain of treated rats and controls during the chelon feeding period. The effect of feeding C12 TT or C22 TT on the retention of ^241 Am was tested in 3 groups of 9 rats each. Sprague-Dawley rats (Simonson Labs., Gilroy, Cailf.), aged 60 days, were used in these studies. The animals were housed in groups of 3 or 4 until treatment was initiated. ^241 Am was given via the jugular vein as a single injection in citrate buffer of pH 3.5. One week later, rats were transferred to individual cages and feeding of the chelator was initiated. This delay allowed the nuclide to be incorporated firmly in the target organs, mostly liver and bone.
The first group served as untreated controls, the second and third groups received 50 micro-mole of C12 TT or C22 TT/rat or about 200 micro-mole/kg of body weight, respectively, in their daily ration of 25 g of rodent chow. On days 1 and 7 after injection and on days 3, 6 and 10 of chelation treatment, the total body retention of ^241 Am was measured using a whole body counter. The animals were necropsied after 10 days of oral chelation therapy and the femora, liver, 1 kidney, viscera and carcass with integument were counted for ^241 Am content. The other kidney and a sample of the small and large intestine were prepared for histological evaluation. Whole body retentions as a function of time were evaluated. Terminal organ retentions were measured after necropsy only. The reduction in whole body or organ retention due to oral chelation treatment was expressed as: [formula] both taken at the same time after treatment initiation. Results are shown in Table 2 above, which is incorporated into this Example by reference.

[9] = Elimination of intravenously injected 241Am-complexed chelons by whole body counting and excreta; assay type: in vivo; settings: intravenous
Procedure: In this example, animals were injected intravenously with ^241 Am-complexed C12 TT or K11 TT (K= terminally carboxylated alkyl series) and the rates of elimination from the body were determined. This was determined by whole body counting and counting of the excreta, both urine and feces. FIG. 2 illustrates the fraction of total body retention of the labeled chelating agents as a function of time after exposure. […] This example illustrates that modified polyaminocarboxylic acids have different organ targeting properties and different excretion pathways.

[10] = tested on: red cells; assay: Crenation-hemolysis test in fresh canine blood; assay type: cell-based; settings: Ca chelate, 10 and 20 mg, 37° C., 1 hour and 4 hours
Procedure: Toxicity studies were performed as indicators of early gross toxicity. […] Therefore, the crenation-hemolysis tests were repeated with the highly purified C12 -and C22 -PACAs. Two ml aliquots of fresh canine blood, drawn with a heparinized syringe, were incubated at 37° C. with an equal volume of a 0.1M Tris-buffer containing 10 and 20 mg, respectively, of the Ca chelate of the two compounds whose osmolarity had been adjusted to 270-300 mOsm. After 1 hour and 4 hours of incubation, respectively, blood smears were prepared and examined microscopically and cells were sedimented.

[11] = In vitro Pb binding and lipophilic character of C12 DMSA; assay type: physicochemical
Text: As with the PACA's, the chain length could be changed and other functional groups could be added.

[12] = Solution behaviour / micelle formation of C22 TT; assay type: physicochemical
[13] = Reduction of 239Pu organ burden by oral administration of C22 TT (Table 5, Example 14); assay type: in vivo, Sprague-Dawley rats; settings: 10 days in diet, starting 14 days after Pu, vs untreated
Procedure: Twelve young adult male rats (Sprague-Dawley rats from Simonsen Labs, Gilroy, Calif.) were given ^239 Pu by intravenous injection. Fourteen days later 6 of the animals were fed C22 TT in the diet while the other 6 animals were not fed the compound and served as controls. The delay in beginning the chelation treatment allowed the nuclide to be incorporated firmly in the target organs. After 10 days of feeding, the animals were sacrificed and the Pu content in 'select tissues was determined by liquid scintillation counting.
*100 × (1Pu in treated animals/Pu in untreated, control animals)

For `O=C([O-])CN(CCN(CC(=O)[O-])CC(=O)[O-])CCN(CC(=O)[O-])CC(=O)[O-].[Ca+2].[Na+].[Na+].[Na+]` [Ca DTPA], the “toxicity after frequent administration” value [1] is listed as “destruction of the epithelial lining and related structures of the intestinal tract followed by death”.
In the case of `O=C(O)CN(CCN(CC(=O)O)CC(=O)O)CCN(CC(=O)O)CC(=O)O` [DTPA, diethylenetriamine pentaacetic acid], the “pH of complete protonation” value [2] is reported as 6.7.
In the case of `O=C(O)C(S)C(S)C(=O)O` (centres unmarked) [DMSA, 2,3dimercaptosuccinic acid], the “effectiveness in removing lead” value [3] is listed as “effective for reducing blood levels of Pb, but has limited effectiveness in removing lead burdens from other organs, such as liver, brain and bone”.
In the case of `CCCCCCCCCCCCSC(C(=O)OCC)C(S)C(=O)OCC` (centres unmarked) [C12 DMS Et2, S-Dodecyl dimercaptosuccinic acid diethyl ester], the “Percentage of aqueous 210Pb found in chloroform phase, 15 min” value [4] is reported as 36.5% and the “Percentage of aqueous 210Pb found in chloroform phase, 16 h” value [4] is reported as 62.2%.
For `CCCCCCCCCCCCN(CCN(CCN(CCN(CC(=O)O)CC(=O)O)CC(=O)O)CC(=O)O)CC(=O)O` [C12 TT, 1-N-Dodecyl-triethylenetetramine pentaacetic acid], the “fraction found in carcass” value [5] was 20%, the “fraction found in liver” value [5] was 3% and the “fraction found in lumen and gut section” value [5] was 73%. For the same molecule, the “fraction found in viscera” value [5] was 4%, the “% Reduction in liver 241Am (Compared with controls)” value (“% Reduction in liver 241Am” for short) [6] was -57.1 ± 0.1% and the “% Reduction in total body 241Am (Before vs after chelon feeding)” value (“% Reduction in total body 241Am” for short) [6] was -46.5 ± 4.0%. For the same molecule, the weight gain [7] was 55.7+11.1 g, the “% Reduction of 241Am, both femora” value [8] was 17% and the “% Reduction of 241Am, carcass” value [8] was 20%. For the same molecule, the “% Reduction of 241Am, liver” value [8] was 71%, the “% Reduction of 241Am, whole body” value [8] was 29% and the “% Reduction of 241Am, one kidney” value [8] was 24%. For the same molecule, the “excretion pathway” value [9] was “via the liver, through the bile into the feces”, the “rate of elimination from the body” value [9] was “less rapidly excreted” and the “appearance of sera / hemolysis” value [10] was “All sera were slightly pink in appearance”. For the same molecule, the “red cell crenation” value [10] was “No red cell crenation was observed”.
In the case of `CCCCCCCCOC(=O)C(S)C(S)C(=O)OCCCCCCCC` (centres unmarked) [DMS(C8)2, dimercaptosuccinic acid dioctyl ester], the “Percentage of aqueous 210Pb found in chloroform phase, 15 min” value [4] is reported as 32.2% and the “Percentage of aqueous 210Pb found in chloroform phase, 16 h” value [4] is reported as 41.9%.
In the case of `CCCCCCCCCCCCSC(C(=O)O)C(S)C(=O)O` (centres unmarked) [C12 DMSA, S-Dodecyl dimercaptosuccinic acid], the “ability to bind Pb in vitro” value [11] is reported as “ability of this molecule to bind Pb is demonstrated in vitro” and the “partial lipophilic character” value [11] is reported as “partial lipophilic character of this molecule has been established in vitro”.
In the case of `CCCCCCCCN(CCN(CCN(CCN(CC(=O)O)CC(=O)O)CC(=O)O)CC(=O)O)CC(=O)O` [C8 TT], the “% Reduction in liver 241Am” value [6] is reported as -30.1 ± 10.0% and the “% Reduction in total body 241Am” value [6] is reported as -39.0 ± 6.3%.
With `CCCCCCCCCCCCCCCCCCCCCCN(CCN(CCN(CCN(CC(=O)O)CC(=O)O)CC(=O)O)CC(=O)O)CC(=O)O` [C22 TT, 1-N-Docosyl-triethylenetetramine pentaacetic acid] the “solution clarity / micelle formation” value [12] was “micelle formation”, the “% Reduction in liver 241Am” value [6] was -47.9 ± 9.1% and the “% Reduction in total body 241Am” value [6] was -45.7 ± 6.1%. For the same molecule, the “% Reduction of 239Pu, liver” value ([13]; p <0.005) was 71.1%, the “% Reduction of 239Pu, spleen” value ([13]; p <0.01) was 16.9% and the “% Reduction of 239Pu, femora” value ([13]; p <0.375) was 3.5%. The “% Reduction of 239Pu, lumbar vertebral bodies” value ([13]; p <0.375) was 8.4%, the weight gain [7] was 70.2+11.6 g and the “% Reduction of 241Am, both femora” value [8] was 32%. The “% Reduction of 241Am, carcass” value [8] was 36%, the “% Reduction of 241Am, liver” value [8] was 89% and the “% Reduction of 241Am, whole body” value [8] was 44%. The “% Reduction of 241Am, one kidney” value [8] was 26%, the “appearance of sera / hemolysis” value [10] was “All sera were slightly pink in appearance” and the “red cell crenation” value [10] was “No red cell crenation was observed”.
For `O=C(O)CN(CCN(CC(=O)O)CC(=O)O)CC(=O)O` [EDTA, ethylenediaminetetraacetic acid], the “pH of complete protonation” value [2] is listed as 8.8 and the “effectiveness in removing lead” value [3] is listed as “effective in removing lead in the blood, but is not effective in removing lead which has penetrated the cells”.

From patent publication US5403862A, “Method for oral decorporation of metals” (priority 1992, dated 1995)
